Reference: publication PMC12267702, “Harvest time and soil-plant relationship effects on phytochemical constituency and biological activities of psidium guajava L. leaves” (Scientific Reports, 2025)
Marks after values point to notes of the source that are not given here.

Tests used:
Format in all cases: biochemical
β-galactosidase = β-galactosidase inhibition (in vitro anti-diabetic activity)
From the text: (§1) The anti-diabetic effects of the ethyl acetate fraction from dried P. guajava leaves, collected in March and August, were compared in vitro. This comparison involved measuring the inhibition of carbohydrate hydrolyzing enzymes, including α-amylase, α-glucosidase, and β-galactosidase, as detailed in Naguib et al.[28].

α-amylase = α-amylase inhibition (in vitro anti-diabetic activity)
From the text: as §1

α-glucosidase = α-glucosidase inhibition (in vitro anti-diabetic activity)
From the text: as §1

[1] = DPPH free radical scavenging assay
Protocol: (§2) Two distinct antioxidant assays were performed to evaluate the radical scavenging potential of the ethyl acetate fraction obtained from dried P. guajava leaves collected in March and August. […] Ascorbic acid served as the reference standard.

[2] = ABTS free radical scavenging assay
Protocol: as §2

[3] = target: T1, 5-LOX enzyme (human recombinant) (Homo sapiens, UniProt P09917); assay: 5-LOX enzyme inhibition assay (5-LOX kit)
T1 construct: purchased Sigma-Aldrich
T1 sequence (P09917 1-674): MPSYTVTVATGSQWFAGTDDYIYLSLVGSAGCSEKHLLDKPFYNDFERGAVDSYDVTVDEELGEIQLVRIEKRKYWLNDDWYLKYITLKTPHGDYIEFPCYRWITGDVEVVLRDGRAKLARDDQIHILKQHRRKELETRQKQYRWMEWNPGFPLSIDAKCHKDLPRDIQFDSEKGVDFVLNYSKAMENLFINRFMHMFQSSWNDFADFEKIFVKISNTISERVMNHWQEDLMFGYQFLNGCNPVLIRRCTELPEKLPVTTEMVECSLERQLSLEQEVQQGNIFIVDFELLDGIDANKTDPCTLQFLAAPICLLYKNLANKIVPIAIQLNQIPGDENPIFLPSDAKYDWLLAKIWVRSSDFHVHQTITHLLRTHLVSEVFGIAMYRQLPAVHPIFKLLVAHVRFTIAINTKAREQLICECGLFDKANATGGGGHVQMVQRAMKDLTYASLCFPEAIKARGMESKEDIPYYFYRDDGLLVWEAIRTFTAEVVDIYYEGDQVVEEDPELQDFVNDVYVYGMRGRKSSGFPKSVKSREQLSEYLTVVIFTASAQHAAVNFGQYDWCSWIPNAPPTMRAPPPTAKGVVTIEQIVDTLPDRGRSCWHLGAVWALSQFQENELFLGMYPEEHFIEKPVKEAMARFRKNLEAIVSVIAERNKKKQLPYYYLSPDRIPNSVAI

C[C@H]1O[C@H](O[C@H]2[C@H](O)[C@@H](O)[C@@H](O[C@H]3[C@H](O)[C@@H](O)C(O)O[C@@H]3CO)O[C@@H]2CO)[C@H](O)[C@@H](O)[C@@H]1N[C@H]1C=C(CO)[C@@H](O)[C@H](O)[C@H]1O (stereo partly drawn) [Acarbose]
β-galactosidase Inhibition % (β-galactosidase; 10 µg/mL): 43.78 ± 0.12^e %
β-galactosidase Inhibition % (β-galactosidase; 50 µg/mL): 83.72 ± 0.09^f %
β-galactosidase Inhibition % (β-galactosidase; 100 µg/mL): 91.40 ± 0.10^g %
α-amylase Inhibition % (α-amylase; 10 µg/mL): 38.57 ± 0.17^e %
α-amylase Inhibition % (α-amylase; 50 µg/mL): 79.54 ± 0.12^d %
α-amylase Inhibition % (α-amylase; 100 µg/mL): 86.31 ± 0.09^f %
α-glucosidase Inhibition % (α-glucosidase; 10 µg/mL): 41.89 ± 0.10^c %
α-glucosidase Inhibition % (α-glucosidase; 50 µg/mL): 80.36 ± 0.08^d %
α-glucosidase Inhibition % (α-glucosidase; 100 µg/mL): 89.57 ± 0.15^f %

O=C1O[C@H]([C@@H](O)CO)C(O)=C1O [Ascorbic acid]
DPPH Inhibition percentages (%) ([1]; 10 µg/ml): 73.12 ± 0.15^g %
DPPH Inhibition percentages (%) ([1]; 50 µg/ml): 82.47 ± 0.13^h %
DPPH Inhibition percentages (%) ([1]; 100 µg/ml): 90.52 ± 0.09^i %
ABTS Inhibition percentages (%) ([2]; 10 µg/ml): 76.02 ± 0.11^g %
ABTS Inhibition percentages (%) ([2]; 50 µg/ml): 81.43 ± 0.08^h %
ABTS Inhibition percentages (%) ([2]; 100 µg/ml): 87.26 ± 0.13^i %

CC(c1cc2ccccc2s1)N(O)C(N)=O (stereo not drawn) [Zileuton]
inhibition at 1 µg/mL ([3]; 1 µg/ml): 40.62 ± 0.08%
inhibition at 10 µg/mL ([3]; 10 µg/ml): 61.39 ± 0.14%
inhibition at 100 µg/mL ([3]; 100 µg/ml): 79.42 ± 0.13%
